Test results as given in ChEMBL document CHEMBL5042496, “An unanticipated discovery towards novel naphthalimide corbelled aminothiazoximes as potential anti-MRSA agents and allosteric modulators for PBP2a” (Eur J Med Chem, 2022).
Converted amounts (≈) assume the structure as drawn. The source made the active and inactive calls. The rule behind the calls is not given here.

How the values were obtained:
Staphylococcus = assay: Binding affinity to Staphylococcus aureus PBP2a measured after 6 hrs by ELISA; settings: filed as positive allosteric modulator
Staphylococcus aureus [1] = assay: Antibacterial activity against methicillin-resistant Staphylococcus aureus assessed as bacterial growth inhibition measured after 24 hrs by two fold serial dilution technique; format: functional
Enterococcus faecium = assay: Antibacterial activity against Enterococcus faecium assessed as bacterial growth inhibition measured after 24 hrs by two fold serial dilution technique; format: functional
Staphylococcus aureus [2] = assay: Antibacterial activity against Staphylococcus aureus assessed as bacterial growth inhibition measured after 24 hrs by two fold serial dilution technique; format: functional
Staphylococcus aureus [3] = assay: Antibacterial activity against Staphylococcus aureus ATCC 25923 assessed as bacterial growth inhibition measured after 24 hrs by two fold serial dilution technique; format: functional
Staphylococcus aureus [4] = assay: Antibacterial activity against Staphylococcus aureus ATCC 29213 assessed as bacterial growth inhibition measured after 24 hrs by two fold serial dilution technique; format: functional
Klebsiella pneumoniae = assay: Antibacterial activity against Klebsiella pneumoniae assessed as bacterial growth inhibition measured after 24 hrs by two fold serial dilution technique; format: functional
Escherichia coli [5] = assay: Antibacterial activity against Escherichia coli assessed as bacterial growth inhibition measured after 24 hrs by two fold serial dilution technique; format: functional
Pseudomonas aeruginosa [6] = assay: Antibacterial activity against Pseudomonas aeruginosa assessed as bacterial growth inhibition measured after 24 hrs by two fold serial dilution technique; format: functional
Acinetobacter baumannii = assay: Antibacterial activity against Acinetobacter baumannii assessed as bacterial growth inhibition measured after 24 hrs by two fold serial dilution technique; format: functional
Pseudomonas aeruginosa [7] = assay: Antibacterial activity against Pseudomonas aeruginosa ATCC 27853 assessed as bacterial growth inhibition measured after 24 hrs by two fold serial dilution technique; format: functional
Escherichia coli [8] = assay: Antibacterial activity against Escherichia coli ATCC 25922 assessed as bacterial growth inhibition measured after 24 hrs by two fold serial dilution technique; format: functional
[9] = Hemolytic activity in human RBC assessed as hemolysis incubated for 1 hr; format: toxicity, cell-based, Erythrocyte; settings: red blood cells
L929 = assay: Cytotoxicity against mouse L929 cells assessed as reduction in cell viability at 0.39 to 100 ug/ml incubated for 24 hrs by MTT assay; format: toxicity, cell-based; settings: l929, 24 h, dose 0.39-100 µg/ml
Staphylococcus aureus [10] = assay: Antibacterial activity against methicillin resistant Staphylococcus aureus treated over 16 serial passages measured after 24 hrs by resistance development assay; format: functional, organism-based
Staphylococcus aureus [11] = assay: Antibacterial activity against methicillin-resistant Staphylococcus aureus assessed as inhibition of bacterial growth at 1 time MIC measured after 2 hrs; format: functional, organism-based
Staphylococcus aureus [12] = assay: Antibacterial activity against methicillin-resistant Staphylococcus aureus assessed as inhibition of bacterial growth at 2 time MIC measured after 2 hrs; format: functional, organism-based
Staphylococcus aureus [13] = assay: Antibacterial activity against methicillin-resistant Staphylococcus aureus assessed as inhibition of bacterial growth at 0.5 time MIC measured after 2 hrs; format: functional, organism-based
Staphylococcus aureus [14] = assay: Antibacterial activity against methicillin-resistant Staphylococcus aureus assessed as disrupted cell shapes at 1 time MIC incubated for 8 hrs by SEM analysis; format: functional, organism-based
Cell membrane [15] = assay: Induction of membrane depolarization in methicillin-resistant Staphylococcus aureus at MIC measured upto 1 hr by DiSC35 dye-based fluorescence assay; settings: time hrs <=1, TDE = time-dependent effect
Cell membrane [16] = assay: Induction of inner membrane permeabilization in methicillin-resistant Staphylococcus aureus at 1 time MIC measured for 1 hr by PI dye-based fluorescence assay; settings: TDE = time-dependent effect
Cell membrane [17] = assay: Induction of inner membrane permeabilization in methicillin-resistant Staphylococcus aureus at 2 times MIC measured for 1 hr by PI dye-based fluorescence assay; settings: TDE = time-dependent effect
Cell membrane [18] = assay: Induction of cell membrane disruption in methicillin-resistant Staphylococcus aureus assessed as increase in protein leakage measured after 6 hrs by Bradford assay
Staphylococcus aureus [19] = assay: Antibacterial activity against methicillin-resistant Staphylococcus aureus assessed as respiratory pathway inactivation by measuring decrease in LDH activity at MIC incubated for 6 hrs by LDH assay; format: functional; design: scale not given: the % may be the effect or the level left
Staphylococcus aureus [20] = assay: Antibacterial activity against methicillin-resistant Staphylococcus aureus assessed as respiratory pathway inactivation by measuring decrease in LDH activity measured after 6 hrs by LDH assay; format: functional, organism-based
Homo sapiens = species: Homo sapiens; assay: Binding affinity to lipase (unknown origin) assessed as decrease in fluorescence intensity measured after 5 mins by fluorescence spectrofluorometric analysis
DNA [21] = assay: Binding affinity to DNA (unknown origin) assessed as hypochromicity at 0.2 to 0.8 10^-5 mol/L by UV spectrophotometric analysis; format: functional; settings: Homo sapiens; dose 0.2-0.8 10^-5mol/L
DNA [22] = assay: Binding affinity to DNA (unknown origin) assessed as decrease in fluorescence intensity at 5 10^-5 mol/L by acridine orange staining based fluorescence microscopic analysis; format: functional; settings: Homo sapiens
Staphylococcus aureus [23] = assay: Induction of ROS generation in methicillin-resistant Staphylococcus aureus after 6 hrs by DCFH-DA staining based fluorescence assay; format: functional, organism-based
Staphylococcus aureus [24] = assay: Antibacterial activity against methicillin-resistant Staphylococcus aureus assessed as pitted cell structures at 1 time MIC incubated for 8 hrs by SEM analysis; format: functional, organism-based
Staphylococcus aureus [25] = assay: Antibacterial activity against methicillin-resistant Staphylococcus aureus assessed as shriveled cell structures at 1 time MIC incubated for 8 hrs by SEM analysis; format: functional, organism-based
DNA [26] = assay: Binding affinity to DNA (unknown origin) assessed as decrease in maximum absorption peak at 410nm at 3 10^-5 mol/L by UV spectrophotometric analysis; format: functional; settings: Homo sapiens
[27] = target: T1, MecA (Staphylococcus aureus) (UniProt Q7DHH4); assay: Binding affinity to Staphylococcus aureus PBP2a measured after 6 hrs by ELISA in the presence of Norfloxacin; settings: filed as positive allosteric modulator
T1 sequence (whole entry): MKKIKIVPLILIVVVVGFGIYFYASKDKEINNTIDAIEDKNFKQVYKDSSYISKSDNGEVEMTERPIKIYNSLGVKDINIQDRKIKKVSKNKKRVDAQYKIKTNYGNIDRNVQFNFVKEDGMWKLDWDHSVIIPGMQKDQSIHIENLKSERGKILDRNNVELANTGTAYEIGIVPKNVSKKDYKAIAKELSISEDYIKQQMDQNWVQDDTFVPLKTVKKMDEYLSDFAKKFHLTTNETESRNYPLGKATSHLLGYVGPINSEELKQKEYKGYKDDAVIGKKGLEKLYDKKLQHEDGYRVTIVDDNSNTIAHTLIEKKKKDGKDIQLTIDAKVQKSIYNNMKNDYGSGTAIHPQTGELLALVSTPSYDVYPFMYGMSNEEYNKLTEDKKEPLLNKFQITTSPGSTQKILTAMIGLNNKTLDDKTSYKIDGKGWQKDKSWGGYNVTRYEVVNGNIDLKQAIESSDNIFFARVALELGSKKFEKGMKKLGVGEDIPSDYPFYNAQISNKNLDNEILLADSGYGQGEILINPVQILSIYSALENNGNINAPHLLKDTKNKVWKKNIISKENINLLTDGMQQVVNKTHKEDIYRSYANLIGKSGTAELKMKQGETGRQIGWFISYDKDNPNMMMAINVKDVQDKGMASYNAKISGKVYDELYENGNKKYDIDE

[28] = target: T1, MecA (Staphylococcus aureus); assay: Binding affinity to Staphylococcus aureus PBP2a measured after 6 hrs by ELISA in the presence of Ceftizoxime; settings: filed as positive allosteric modulator
Staphylococcus aureus [29] = assay: Antibacterial activity against methicillin resistant Staphylococcus aureus treated over 10 serial passages measured after 24 hrs by resistance development assay; format: functional, organism-based

Structure (SMILES): CN(C)CCN1C(=O)c2cccc3c(Br)ccc(c23)C1=O
- Activity (Staphylococcus): 7.08 µg/mL

Structure (SMILES): CO/N=C(\C(=O)N1CCN(c2ccc3c4c(cccc24)C(=O)N(CCN(C)C)C3=O)CC1)c1csc(N)n1
- MIC (Staphylococcus aureus [1]): 0.5 µg/mL (≈ 0.933 µM)
- MIC (Enterococcus faecium): 4 µg/mL (≈ 7.47 µM)
- MIC (Staphylococcus aureus [2]): 16 µg/mL (≈ 29.9 µM)
- MIC (Staphylococcus aureus [3]): 8 µg/mL (≈ 14.9 µM)
- MIC (Staphylococcus aureus [4]): 4 µg/mL (≈ 7.47 µM)
- MIC (Klebsiella pneumoniae): 4 µg/mL (≈ 7.47 µM)
- MIC (Escherichia coli [5]): 2 µg/mL (≈ 3.73 µM)
- MIC (Pseudomonas aeruginosa [6]): 16 µg/mL (≈ 29.9 µM)
- MIC (Acinetobacter baumannii): 16 µg/mL (≈ 29.9 µM)
- MIC (Pseudomonas aeruginosa [7]): 8 µg/mL (≈ 14.9 µM)
- MIC (Escherichia coli [8]): 16 µg/mL (≈ 29.9 µM)
- HC50 at 1 h [9]: 205 µg/mL
- Activity (L929): Non-Toxic
- Activity (Staphylococcus aureus [10]): Active
- Activity (Staphylococcus aureus [11]): Active
- Activity (Staphylococcus aureus [12]): Active
- Activity (Staphylococcus aureus [13]): Active
- Activity (Staphylococcus aureus [14]): Active
- Activity (Cell membrane [15]): Tde
- Activity (Cell membrane [16]): Tde
- Activity (Cell membrane [17]): Tde
- Activity (Cell membrane [18]): Dose-Dependent Effect
- Activity (Staphylococcus aureus [19]): 45%
- Activity (Staphylococcus aureus [20]): Dose-Dependent Effect
- Activity (Homo sapiens): Active
- Activity (DNA [21]): Active
- Activity (DNA [22]): Active
- Activity (Staphylococcus aureus [23]): Dose-Dependent Effect
- Activity (Staphylococcus): 4.58 µg/mL
- Activity (Staphylococcus aureus [24]): Active
- Activity (Staphylococcus aureus [25]): Active
- Activity (DNA [26]): Active
- Activity [27]: 4.96 ng/mL
- Activity [28]: 1.29 ng/mL

Structure (SMILES): CO/N=C(\C(=O)N1CCN(c2ccc3c4c(cccc24)C(=O)N(OC)C3=O)CC1)c1csc(N)n1
- MIC (Staphylococcus aureus [1]): 128 µg/mL (≈ 259 µM)
- MIC (Enterococcus faecium): 2 µg/mL (≈ 4.04 µM)
- MIC (Staphylococcus aureus [2]): 128 µg/mL (≈ 259 µM)
- MIC (Staphylococcus aureus [3]): 64 µg/mL (≈ 129 µM)
- MIC (Staphylococcus aureus [4]): 64 µg/mL (≈ 129 µM)
- MIC (Klebsiella pneumoniae): 128 µg/mL (≈ 259 µM)
- MIC (Escherichia coli [5]): 64 µg/mL (≈ 129 µM)
- MIC (Pseudomonas aeruginosa [6]): 128 µg/mL (≈ 259 µM)
- MIC (Acinetobacter baumannii): 4 µg/mL (≈ 8.09 µM)
- MIC (Pseudomonas aeruginosa [7]): 32 µg/mL (≈ 64.7 µM)
- MIC (Escherichia coli [8]): 64 µg/mL (≈ 129 µM)
- HC50 at 1 h [9]: 513 µg/mL
- Activity (Staphylococcus): 5.43 µg/mL

Structure (SMILES): CO/N=C(\C(=O)N[C@@H]1C(=O)N2C(C(=O)O)=CCS[C@H]12)c1csc(N)n1
- Activity (Staphylococcus): 7.45 µg/mL

Structure (SMILES): CN(C)CCN1C(=O)c2cccc3c(N4CCNCC4)ccc(c23)C1=O
- Activity (Staphylococcus): 4.74 µg/mL

Structure (SMILES): CCn1cc(C(=O)O)c(=O)c2cc(F)c(N3CCNCC3)cc21 [NORFLOXACIN]
- Activity (Staphylococcus aureus [29]): inactive
- MIC (Staphylococcus aureus [1]): 16 µg/mL (≈ 50.1 µM)
- MIC (Enterococcus faecium): 8 µg/mL (≈ 25.1 µM)
- MIC (Staphylococcus aureus [2]): 8 µg/mL (≈ 25.1 µM)
- MIC (Staphylococcus aureus [3]): 16 µg/mL (≈ 50.1 µM)
- MIC (Staphylococcus aureus [4]): 16 µg/mL (≈ 50.1 µM)
- MIC (Klebsiella pneumoniae): 4 µg/mL (≈ 12.5 µM)
- MIC (Escherichia coli [5]): 2 µg/mL (≈ 6.26 µM)
- MIC (Pseudomonas aeruginosa [6]): 4 µg/mL (≈ 12.5 µM)
- MIC (Acinetobacter baumannii): 1 µg/mL (≈ 3.13 µM)
- MIC (Pseudomonas aeruginosa [7]): 2 µg/mL (≈ 6.26 µM)
- MIC (Escherichia coli [8]): 4 µg/mL (≈ 12.5 µM)
- Activity (Staphylococcus): 7.67 µg/mL

Structure (SMILES): CO/N=C(\C(=O)N1CCN(c2ccc3c4c(cccc24)C(=O)N(c2ncc(C)s2)C3=O)CC1)c1csc(N)n1
- MIC (Staphylococcus aureus [1]): 8 µg/mL (≈ 14.2 µM)
- MIC (Enterococcus faecium): 64 µg/mL (≈ 114 µM)
- MIC (Staphylococcus aureus [2]): 128 µg/mL (≈ 228 µM)
- MIC (Staphylococcus aureus [3]): 128 µg/mL (≈ 228 µM)
- MIC (Staphylococcus aureus [4]): 64 µg/mL (≈ 114 µM)
- MIC (Klebsiella pneumoniae): 1 µg/mL (≈ 1.78 µM)
- MIC (Escherichia coli [5]): 128 µg/mL (≈ 228 µM)
- MIC (Pseudomonas aeruginosa [6]): 64 µg/mL (≈ 114 µM)
- MIC (Acinetobacter baumannii): 128 µg/mL (≈ 228 µM)
- MIC (Pseudomonas aeruginosa [7]): 32 µg/mL (≈ 57 µM)
- MIC (Escherichia coli [8]): 16 µg/mL (≈ 28.5 µM)
- HC50 at 1 h [9]: 234 µg/mL

Structure (SMILES): CCCCCCN1C(=O)c2cccc3c(N4CCN(C(=O)/C(=N\OC)c5csc(N)n5)CC4)ccc(c23)C1=O
- MIC (Staphylococcus aureus [1]): 32 µg/mL (≈ 58.3 µM)
- MIC (Enterococcus faecium): 64 µg/mL (≈ 117 µM)
- MIC (Staphylococcus aureus [2]): 16 µg/mL (≈ 29.2 µM)
- MIC (Staphylococcus aureus [3]): 128 µg/mL (≈ 233 µM)
- MIC (Staphylococcus aureus [4]): 64 µg/mL (≈ 117 µM)
- MIC (Klebsiella pneumoniae): 64 µg/mL (≈ 117 µM)
- MIC (Escherichia coli [5]): 32 µg/mL (≈ 58.3 µM)
- MIC (Pseudomonas aeruginosa [6]): 64 µg/mL (≈ 117 µM)
- MIC (Acinetobacter baumannii): 8 µg/mL (≈ 14.6 µM)
- MIC (Pseudomonas aeruginosa [7]): 64 µg/mL (≈ 117 µM)
- MIC (Escherichia coli [8]): 64 µg/mL (≈ 117 µM)
- HC50 at 1 h [9]: 306 µg/mL
